{"source": "the NIST ThermoML archive (doi:10.1016/j.tca.2010.01.005)", "assay": "excess molar enthalpy (molar enthalpy of mixing); xn = mol fraction of the nth substance listed", "settings": "303.15 K, 101 kPa, Liquid, Calvet calorimetry", "note": "Numbers after ± are expanded uncertainties."}
{"molecule": "c1ccoc1", "note": "[furan] + BrCBr", "values": [{"measurement": "excess molar enthalpy", "setting": "x2 = 0.1499", "value": "0.0447 ± 0.000717", "unit": "kcal/mol"}, {"measurement": "excess molar enthalpy", "setting": "x2 = 0.2828", "value": "0.0554 ± 0.000717", "unit": "kcal/mol"}, {"measurement": "excess molar enthalpy", "setting": "x2 = 0.3405", "value": "0.0552 ± 0.000717", "unit": "kcal/mol"}, {"measurement": "excess molar enthalpy", "setting": "x2 = 0.4247", "value": "0.0507 ± 0.000717", "unit": "kcal/mol"}, {"measurement": "excess molar enthalpy", "setting": "x2 = 0.6268", "value": "0.0397 ± 0.000717", "unit": "kcal/mol"}, {"measurement": "excess molar enthalpy", "setting": "x2 = 0.7204", "value": "0.0344 ± 0.000478", "unit": "kcal/mol"}, {"measurement": "excess molar enthalpy", "setting": "x2 = 0.8358", "value": "0.0261 ± 0.000478", "unit": "kcal/mol"}, {"measurement": "excess molar enthalpy", "setting": "x2 = 0.9381", "value": "0.0131 ± 0.000239", "unit": "kcal/mol"}]}
{"molecule": "BrCBr", "note": "[dibromomethane] + CC(=O)c1ccccc1", "values": [{"measurement": "excess molar enthalpy", "setting": "x1 = 0.1763", "value": "-0.0244 ± 0.000478", "unit": "kcal/mol"}, {"measurement": "excess molar enthalpy", "setting": "x1 = 0.3362", "value": "-0.0354 ± 0.000478", "unit": "kcal/mol"}, {"measurement": "excess molar enthalpy", "setting": "x1 = 0.4052", "value": "-0.0387 ± 0.000717", "unit": "kcal/mol"}, {"measurement": "excess molar enthalpy", "setting": "x1 = 0.4229", "value": "-0.0382 ± 0.000478", "unit": "kcal/mol"}, {"measurement": "excess molar enthalpy", "setting": "x1 = 0.5115", "value": "-0.0382 ± 0.000478", "unit": "kcal/mol"}, {"measurement": "excess molar enthalpy", "setting": "x1 = 0.6248", "value": "-0.0361 ± 0.000478", "unit": "kcal/mol"}, {"measurement": "excess molar enthalpy", "setting": "x1 = 0.7449", "value": "-0.0272 ± 0.000478", "unit": "kcal/mol"}, {"measurement": "excess molar enthalpy", "setting": "x1 = 0.852", "value": "-0.0182 ± 0.000478", "unit": "kcal/mol"}]}
{"molecule": "BrCBr", "note": "[dibromomethane] + CC#N", "values": [{"measurement": "excess molar enthalpy", "setting": "x1 = 0.1028", "value": "0.0213 ± 0.000478", "unit": "kcal/mol"}, {"measurement": "excess molar enthalpy", "setting": "x1 = 0.2166", "value": "0.0349 ± 0.000478", "unit": "kcal/mol"}, {"measurement": "excess molar enthalpy", "setting": "x1 = 0.3067", "value": "0.0413 ± 0.000717", "unit": "kcal/mol"}, {"measurement": "excess molar enthalpy", "setting": "x1 = 0.4007", "value": "0.0428 ± 0.000717", "unit": "kcal/mol"}, {"measurement": "excess molar enthalpy", "setting": "x1 = 0.5547", "value": "0.0359 ± 0.000478", "unit": "kcal/mol"}, {"measurement": "excess molar enthalpy", "setting": "x1 = 0.6564", "value": "0.0256 ± 0.000478", "unit": "kcal/mol"}, {"measurement": "excess molar enthalpy", "setting": "x1 = 0.7022", "value": "0.0213 ± 0.000478", "unit": "kcal/mol"}, {"measurement": "excess molar enthalpy", "setting": "x1 = 0.8786", "value": "0.0055 ± 0.000239", "unit": "kcal/mol"}]}
